Key:
Assay type in all cases: cell-based
Fyn = target: T1, Fyn (Homo sapiens, UniProt P06241); experiment: Fyn fatty acylation (IC13/IC16 incorporation) in transfected COS-1 cells; settings: COS-1 cells, 100 μM 2-bromopalmitate, normalized for total protein levels
T1 construct: expressed in transfected cells; host or cells: COS-1
Procedure: The syntheses of 13-[^125I]-iodotridecanoic acid (IC13)or 16-[^125I]-iodohexanoic acid (IC16) were carried out as described previously (39). Cell labeling was carried out as described (12,13) with modifications. Briefly, each 60 mm plate of Fyn transfected COS-1 cells was incubated O/N in DMEM containing 2.5% FBS, 0.5% defatted BSA (Sigma) with or without 100 μM 2-bromopalmitate or 50 μM polyunsaturated fatty acid. Prior to labeling, the cells were incubated for 1 hr with 1 ml of DMEM containing 2% dialyzed FBS, then labeled for 4 hours with 25-50 μCi IC13 or IC16 in DMEM containing 2% dialyzed FBS, 0.5% defatted BSA with or without 2-bromopalmitate or polyunsaturated fatty acid. Labeled cells were washed three times with cold STE (100 mM NaCl, 10 mM Tris pH 7.4, 1 mM EDTA) and lysed in 0.6 ml of cold RIPA buffer containing protease inhibitors (10 μg/ml each of benzamidine, AEBSF, TPCK and TLCK, 1.5 μg/ml each of Leupeptin, Pepstatin A and Aprotinin). Lysates were clarified at 100,000×g for 15 min at 4° C. in a Beckman TL-100 ultracentrifuge. Lysates were immunoprecipitated with rabbit anti-Fyn antibody and protein A-agarose. Immunoprecipitates were washed three times with cold RIPA buffer and suspended in 1× sample buffer containing 100 mM dithiothreitol and subjected to SDS-PAGE. Gels were dried between cellophane and analyzed by phosphorimaging after 12-36 hours exposure. Experiments in Jurkat T cells were carried out according to the above protocol using 2×10^7 cells per experiment, and reducing the incubation time with 2-bromopalmitate to 3-4 hours.
A number of palmitic acid analogs were screened for their ability to inhibit Fyn palmitoylation. COS-1 cells were transfected with cDNA encoding Fyn. Three days after transfection, the cells were labeled with either [^35S]-methionine, 13-[^125I]-iodotridecanoic acid (IC13), an iodinated myristate analog, or 16-[^125I]-iodohexanoic acid (IC16), an iodinated palmitic acid analog (39), in the presence or absence of nonradioactive palmitate analogs. Cells were lysed, immunoprecipitated with anti-Fyn antibody, and analyzed by SDS-PAGE and phosphorimaging. […] When normalized for total protein levels, 70% of Fyn myristoylation and over 90% of Fyn palmitoylation was inhibited in the presence of 2-bromopalmitate. Treatment of cells with other analogs, including 2-hydroxypalmitate, palmitoleic acid and 16-hydroxypalmitate had no effect (data not shown).
To test this hypothesis, Fyn transfected COS-1 cells were incubated O/N with or without 50 μM arachidonic acid (20:4) or eicosapentaenoic acid (20:5), then labeled with IC13 or IC16. Total protein levels were monitored by immunoblotting aliquots of each sample with anti-Fyn antibody (FIG. 8A, lower panel).

Fyn(16)-eGFP = experiment: Localization of Fyn(16)-eGFP in COS-1 cells (fluorescence microscopy, P100/S100 fractionation)
Procedure: COS-1 cells were transfected with a Fyn(16)-eGFP construct (12) and seeded onto 25-mm glass coverslips 2 days prior to the experiment. Cells were treated overnight with or without 2 bromopalmitate as described above. Plates were washed with PBS and coverslips were mounted onto glass slides in PBS and observed with a 40× and 100×oil immersion lens on a Zeiss Axiophot 2 microscope and photographed with Kodak TMAX 400.
To investigate the effect of 2-bromopalmitate on the intracellular localization of Fyn more precisely, COS-1 cells expressing a Fyn(16)-eGFP construct were examined by immunofluorescence. This construct contains the first 16 amino acids of Fyn fused in frame to eGFP; the chimera is targeted to the plasma membrane and detergent resistant microdomains (12). Cells were cultured with no treatment, with 2-bromopalmitate or with 2-hydroxymyristate, a known myristoylation inhibitor (40,41), as described above, and were examined live by fluorescence microscopy.
Analysis of the subcellular localization of Fyn(16)-eGFP in the presence of 2-bromopalmitate and 2-hydroxymyristate was performed as described above for steady-state Fyn. As depicted in FIG. 2B, in the absence of treatment, 80% of Fyn(16)-eGFP Fyn was membrane bound, whereas in cells treated with 2-bromopalmitate and 2-hydroxymyristate, 65% and 78% of Fyn(16)-eGFP were cytosolic, respectively.

GAP43(10)-Fyn = experiment: Membrane binding of GAP43(10)-Fyn chimera in COS-1 cells; settings: COS-1, 2-bromopalmitate overnight, 2 hours label
Procedure: For analysis of newly synthesized Fyn, cells were cultured overnight as descibed above, then starved for 1 hr in DMEM minus methionine and cysteine containing 2% dialyzed FBS, 0.5% defatted BSA with or without 100 μM 2-bromopalmitate. Cells were labeled for 5 minutes with Trans^35S-Label (ICN, Irvine, Calif.), then fractionated as described above. Gels were treated for 20 minutes with 1M salicylic acid prior to drying. The Gαo(10)-Fyn chimera was labeled for 5 min and GAP-43 Fyn chimera was labeled for 2 hours and fractionated according to the above conditions.
Each of these three sequences was appended onto the Fyn protein. Gαo(10)-Fyn and GAP43(10)-Fyn are chimeric constructs with the first 10 amino acids of Gαo or GAP-43, respectively, in place of the first 10 amino acids of wt Fyn. These constructs have been previously described (12,13). In addition, the H-Ras tail was fused to the C-terminus of a non-acylated Fyn mutant (G2A,C3SFyn-HRas). This construct contains full length Fyn with mutations in the N-terminal myristoylation and palmitoylation sites, but with the C-terminus of H-Ras available for prenylation and palmitoylation.

MAP kinase = experiment: Activation of MAP kinase in Jurkat cells (pERK immunoblot); settings: OKT3 activated, pERK1 blot
Procedure: Jurkat cells were treated with 2-bromopalmitate and activated as described above. Lysates were analyzed for the presence of active MAP kinase by immunoblotting with a pERK antibody, and for total MAP kinase by immunoblotting with an anti MAPK antibody.
One of the proximal events following T cell receptor engagement is activation of the MAP Kinase pathway. The ability of 2-bromopalmitate to inhibit activation of MAP kinase was examined in Jurkat cells. Cells were cultured with or without 2bromo-palmitate and activated as described above. Cell lysates were subjected to SDS-PAGE and immunoblotted with anti-active MAPK kinase (pERK1). As depicted in FIG. 7, 2-bromopalmitate inhibited the activation of MAPK kinase by 70%. The levels of total MAPK kinase remained unchanged (FIG. 7).

T1 sequence (P06241 whole entry, species assumed): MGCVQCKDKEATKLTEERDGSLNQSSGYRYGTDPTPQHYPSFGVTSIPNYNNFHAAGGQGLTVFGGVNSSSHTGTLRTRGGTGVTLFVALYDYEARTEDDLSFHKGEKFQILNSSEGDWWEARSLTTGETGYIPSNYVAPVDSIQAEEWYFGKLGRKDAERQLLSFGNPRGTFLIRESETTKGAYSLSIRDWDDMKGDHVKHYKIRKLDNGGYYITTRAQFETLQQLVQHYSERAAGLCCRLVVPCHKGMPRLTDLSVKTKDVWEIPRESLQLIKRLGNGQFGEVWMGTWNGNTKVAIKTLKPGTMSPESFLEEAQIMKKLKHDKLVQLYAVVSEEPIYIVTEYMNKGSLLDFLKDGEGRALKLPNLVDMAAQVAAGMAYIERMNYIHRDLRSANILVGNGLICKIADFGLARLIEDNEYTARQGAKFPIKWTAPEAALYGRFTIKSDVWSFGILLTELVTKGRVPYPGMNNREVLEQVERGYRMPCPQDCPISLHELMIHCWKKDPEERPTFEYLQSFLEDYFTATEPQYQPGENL

CCCCCCCCCCCCCCC(Br)C(=O)O (stereo not drawn) [2-bromopalmitate]
Fyn myristoylation inhibited (Fyn; IC13 label): 70% | Fyn palmitoylation inhibited (Fyn; IC16 label): over 90% | Fyn(16)-eGFP cytosolic (Fyn(16)-eGFP; COS-1, 100 μM overnight, P100/S100, untreated 80% membrane bound): 65% | Fyn(16)-eGFP distribution by fluorescence microscopy (Fyn(16)-eGFP; COS-1 live cells, 100 μM overnight): reduced plasma membrane staining | inhibition of membrane binding of GAP43(10)-Fyn (GAP43(10)-Fyn): to the same extent as wt Fyn | activation of MAPK kinase inhibited (MAP kinase): 70%

— US6890954B1, “Uses of 2-bromopalmitate in the treatment of autoimmune disease” (priority 1999, dated 2005)
